Data from PubChem BioAssay (NCI).
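Protocol summary: plate cells (96-well), add compound at 5 concentrations, incubate 48 h, interpolate endpoints linearly. TGI marks complete inhibition of growth.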

Each molecule was assayed on MCF7 breast (assay: DTP human tumour cell line panel, 48 h).

| SMILES | TGI |
| --- | --- |
| O=C1NNC(=O)C2C3c4ccccc4C(c4ccccc43)C12 (stereo not drawn) | > 100 µM |
| CNC(=O)N1CCN(C(=O)NC)CCN(C(=O)NC)CC1 | > 100 µM |
| CC1CN=C(Nc2ccc(S(N)(=O)=O)cc2)S1 (stereo not drawn) | > 100 µM |
| Oc1cc(O)c2c(c1)O[C@H](c1cc(O)c(O)c(O)c1)[C@H](O)C2 | 40.1 µM |
| COC1(OC)C2(Cl)CCC1(Cl)C(OC(C)=O)C2 (stereo not drawn) | > 100 µM |
| Clc1ccc2c(NCCCCN=Cc3ccccc3)ccnc2c1 | 28.6 µM |
| CSc1nc(Cl)c2c(n1)Sc1nc3cc4c(cc3n1C2O)OCO4 (stereo not drawn) | > 100 µM |
| Nc1ccc(C(=O)Nn2c(-c3ccccc3)nc3ccccc3c2=O)cc1 | > 100 µM |
| O=C(CC(=O)N(C(=O)c1ccccc1)c1ccc(Cl)cc1)N/N=C\c1cc(N=Nc2ccccc2Cl)ccc1O | > 100 µM |
| CCN(CC)Cc1cc(Nc2ccnc3ccc4c(nnn4C)c23)ccc1O | 16.7 µM |
| NS(=O)(=O)c1nnc(NC(=O)c2ccccc2)s1 | > 100 µM |
| CC(=O)OCC1OC(N2C(c3ccccc3)=CC(c3ccccc3)C(C#N)=C2S)C(OC(C)=O)C(OC(C)=O)C1OC(C)=O (stereo not drawn) | > 65.4 µM |

These molecules were tested on ACHN renal (assay: DTP human tumour cell line panel, 48 h).

| SMILES | TGI |
| --- | --- |
| O=C1NNC(=O)C2C3c4ccccc4C(c4ccccc43)C12 (stereo not drawn) | > 100 µM |
| CNC(=O)N1CCN(C(=O)NC)CCN(C(=O)NC)CC1 | > 100 µM |
| CC1CN=C(Nc2ccc(S(N)(=O)=O)cc2)S1 (stereo not drawn) | > 100 µM |
| Oc1cc(O)c2c(c1)O[C@H](c1cc(O)c(O)c(O)c1)[C@H](O)C2 | 48.9 µM |
| COC1(OC)C2(Cl)CCC1(Cl)C(OC(C)=O)C2 (stereo not drawn) | > 100 µM |
| Clc1ccc2c(NCCCCN=Cc3ccccc3)ccnc2c1 | 49 µM |
| CSc1nc(Cl)c2c(n1)Sc1nc3cc4c(cc3n1C2O)OCO4 (stereo not drawn) | > 100 µM |
| Nc1ccc(C(=O)Nn2c(-c3ccccc3)nc3ccccc3c2=O)cc1 | > 100 µM |
| O=C(CC(=O)N(C(=O)c1ccccc1)c1ccc(Cl)cc1)N/N=C\c1cc(N=Nc2ccccc2Cl)ccc1O | > 100 µM |
| CCN(CC)Cc1cc(Nc2ccnc3ccc4c(nnn4C)c23)ccc1O | 8.38 µM |
| NS(=O)(=O)c1nnc(NC(=O)c2ccccc2)s1 | > 100 µM |
| CC(=O)OCC1OC(N2C(c3ccccc3)=CC(c3ccccc3)C(C#N)=C2S)C(OC(C)=O)C(OC(C)=O)C1OC(C)=O (stereo not drawn) | 27 µM |

Each molecule was assayed on KM12 colon (assay: DTP human tumour cell line panel, 48 h).

| SMILES | TGI |
| --- | --- |
| O=C1NNC(=O)C2C3c4ccccc4C(c4ccccc43)C12 (stereo not drawn) | > 100 µM |
| CC1CN=C(Nc2ccc(S(N)(=O)=O)cc2)S1 (stereo not drawn) | > 100 µM |
| COC1(OC)C2(Cl)CCC1(Cl)C(OC(C)=O)C2 (stereo not drawn) | > 100 µM |
| Clc1ccc2c(NCCCCN=Cc3ccccc3)ccnc2c1 | 20.8 µM |
| CSc1nc(Cl)c2c(n1)Sc1nc3cc4c(cc3n1C2O)OCO4 (stereo not drawn) | > 100 µM |
| Nc1ccc(C(=O)Nn2c(-c3ccccc3)nc3ccccc3c2=O)cc1 | > 100 µM |
| O=C(CC(=O)N(C(=O)c1ccccc1)c1ccc(Cl)cc1)N/N=C\c1cc(N=Nc2ccccc2Cl)ccc1O | > 100 µM |
| CCN(CC)Cc1cc(Nc2ccnc3ccc4c(nnn4C)c23)ccc1O | 39.7 µM |
| NS(=O)(=O)c1nnc(NC(=O)c2ccccc2)s1 | > 100 µM |
| CC(=O)OCC1OC(N2C(c3ccccc3)=CC(c3ccccc3)C(C#N)=C2S)C(OC(C)=O)C(OC(C)=O)C1OC(C)=O (stereo not drawn) | > 44.9 µM |

These molecules were tested on IGROV1 ovarian (assay: DTP human tumour cell line panel, 48 h).

| SMILES | TGI |
| --- | --- |
| O=C1NNC(=O)C2C3c4ccccc4C(c4ccccc43)C12 (stereo not drawn) | > 100 µM |
| CNC(=O)N1CCN(C(=O)NC)CCN(C(=O)NC)CC1 | > 100 µM |
| CC1CN=C(Nc2ccc(S(N)(=O)=O)cc2)S1 (stereo not drawn) | > 100 µM |
| Oc1cc(O)c2c(c1)O[C@H](c1cc(O)c(O)c(O)c1)[C@H](O)C2 | 41.9 µM |
| COC1(OC)C2(Cl)CCC1(Cl)C(OC(C)=O)C2 (stereo not drawn) | > 100 µM |
| Clc1ccc2c(NCCCCN=Cc3ccccc3)ccnc2c1 | 36.5 µM |
| CSc1nc(Cl)c2c(n1)Sc1nc3cc4c(cc3n1C2O)OCO4 (stereo not drawn) | > 72.2 µM |
| Nc1ccc(C(=O)Nn2c(-c3ccccc3)nc3ccccc3c2=O)cc1 | > 100 µM |
| O=C(CC(=O)N(C(=O)c1ccccc1)c1ccc(Cl)cc1)N/N=C\c1cc(N=Nc2ccccc2Cl)ccc1O | > 100 µM |
| CCN(CC)Cc1cc(Nc2ccnc3ccc4c(nnn4C)c23)ccc1O | 80.3 µM |
| CC(=O)OCC1OC(N2C(c3ccccc3)=CC(c3ccccc3)C(C#N)=C2S)C(OC(C)=O)C(OC(C)=O)C1OC(C)=O (stereo not drawn) | > 52.9 µM |

The molecules below were run on 786-0 renal (assay: DTP human tumour cell line panel, 48 h).

| SMILES | TGI |
| --- | --- |
| O=C1NNC(=O)C2C3c4ccccc4C(c4ccccc43)C12 (stereo not drawn) | > 100 µM |
| CNC(=O)N1CCN(C(=O)NC)CCN(C(=O)NC)CC1 | > 100 µM |
| CC1CN=C(Nc2ccc(S(N)(=O)=O)cc2)S1 (stereo not drawn) | > 100 µM |
| Oc1cc(O)c2c(c1)O[C@H](c1cc(O)c(O)c(O)c1)[C@H](O)C2 | 33.5 µM |
| COC1(OC)C2(Cl)CCC1(Cl)C(OC(C)=O)C2 (stereo not drawn) | > 100 µM |
| Clc1ccc2c(NCCCCN=Cc3ccccc3)ccnc2c1 | 22.2 µM |
| CSc1nc(Cl)c2c(n1)Sc1nc3cc4c(cc3n1C2O)OCO4 (stereo not drawn) | > 39 µM |
| Nc1ccc(C(=O)Nn2c(-c3ccccc3)nc3ccccc3c2=O)cc1 | > 100 µM |
| O=C(CC(=O)N(C(=O)c1ccccc1)c1ccc(Cl)cc1)N/N=C\c1cc(N=Nc2ccccc2Cl)ccc1O | > 100 µM |
| CCN(CC)Cc1cc(Nc2ccnc3ccc4c(nnn4C)c23)ccc1O | 20.8 µM |
| NS(=O)(=O)c1nnc(NC(=O)c2ccccc2)s1 | > 100 µM |
| CC(=O)OCC1OC(N2C(c3ccccc3)=CC(c3ccccc3)C(C#N)=C2S)C(OC(C)=O)C(OC(C)=O)C1OC(C)=O (stereo not drawn) | 9.85 µM |

The molecules below were run on NCI-H23 lung (assay: DTP human tumour cell line panel, 48 h).

| SMILES | TGI |
| --- | --- |
| O=C1NNC(=O)C2C3c4ccccc4C(c4ccccc43)C12 (stereo not drawn) | > 100 µM |
| CNC(=O)N1CCN(C(=O)NC)CCN(C(=O)NC)CC1 | > 100 µM |
| CC1CN=C(Nc2ccc(S(N)(=O)=O)cc2)S1 (stereo not drawn) | > 100 µM |
| Oc1cc(O)c2c(c1)O[C@H](c1cc(O)c(O)c(O)c1)[C@H](O)C2 | 65.3 µM |
| COC1(OC)C2(Cl)CCC1(Cl)C(OC(C)=O)C2 (stereo not drawn) | > 100 µM |
| Clc1ccc2c(NCCCCN=Cc3ccccc3)ccnc2c1 | 25.1 µM |
| CSc1nc(Cl)c2c(n1)Sc1nc3cc4c(cc3n1C2O)OCO4 (stereo not drawn) | > 100 µM |
| Nc1ccc(C(=O)Nn2c(-c3ccccc3)nc3ccccc3c2=O)cc1 | > 100 µM |
| O=C(CC(=O)N(C(=O)c1ccccc1)c1ccc(Cl)cc1)N/N=C\c1cc(N=Nc2ccccc2Cl)ccc1O | > 100 µM |
| CCN(CC)Cc1cc(Nc2ccnc3ccc4c(nnn4C)c23)ccc1O | 25.6 µM |
| NS(=O)(=O)c1nnc(NC(=O)c2ccccc2)s1 | > 100 µM |
| CC(=O)OCC1OC(N2C(c3ccccc3)=CC(c3ccccc3)C(C#N)=C2S)C(OC(C)=O)C(OC(C)=O)C1OC(C)=O (stereo not drawn) | 40.5 µM |

Each molecule was assayed on UO-31 renal (assay: DTP human tumour cell line panel, 48 h).

| SMILES | TGI |
| --- | --- |
| O=C1NNC(=O)C2C3c4ccccc4C(c4ccccc43)C12 (stereo not drawn) | > 100 µM |
| CNC(=O)N1CCN(C(=O)NC)CCN(C(=O)NC)CC1 | > 100 µM |
| CC1CN=C(Nc2ccc(S(N)(=O)=O)cc2)S1 (stereo not drawn) | > 100 µM |
| Oc1cc(O)c2c(c1)O[C@H](c1cc(O)c(O)c(O)c1)[C@H](O)C2 | 39.4 µM |
| COC1(OC)C2(Cl)CCC1(Cl)C(OC(C)=O)C2 (stereo not drawn) | > 100 µM |
| Clc1ccc2c(NCCCCN=Cc3ccccc3)ccnc2c1 | 40.3 µM |
| CSc1nc(Cl)c2c(n1)Sc1nc3cc4c(cc3n1C2O)OCO4 (stereo not drawn) | > 57.8 µM |
| Nc1ccc(C(=O)Nn2c(-c3ccccc3)nc3ccccc3c2=O)cc1 | > 100 µM |
| O=C(CC(=O)N(C(=O)c1ccccc1)c1ccc(Cl)cc1)N/N=C\c1cc(N=Nc2ccccc2Cl)ccc1O | > 100 µM |
| CCN(CC)Cc1cc(Nc2ccnc3ccc4c(nnn4C)c23)ccc1O | 23.6 µM |
| NS(=O)(=O)c1nnc(NC(=O)c2ccccc2)s1 | > 100 µM |
| CC(=O)OCC1OC(N2C(c3ccccc3)=CC(c3ccccc3)C(C#N)=C2S)C(OC(C)=O)C(OC(C)=O)C1OC(C)=O (stereo not drawn) | 51 µM |

What follows are molecules tested on OVCAR-4 ovarian (assay: DTP human tumour cell line panel, 48 h).

| SMILES | TGI |
| --- | --- |
| O=C1NNC(=O)C2C3c4ccccc4C(c4ccccc43)C12 (stereo not drawn) | > 100 µM |
| CC1CN=C(Nc2ccc(S(N)(=O)=O)cc2)S1 (stereo not drawn) | > 100 µM |
| Oc1cc(O)c2c(c1)O[C@H](c1cc(O)c(O)c(O)c1)[C@H](O)C2 | 46.6 µM |
| COC1(OC)C2(Cl)CCC1(Cl)C(OC(C)=O)C2 (stereo not drawn) | > 100 µM |
| Clc1ccc2c(NCCCCN=Cc3ccccc3)ccnc2c1 | 28.1 µM |
| CSc1nc(Cl)c2c(n1)Sc1nc3cc4c(cc3n1C2O)OCO4 (stereo not drawn) | > 100 µM |
| Nc1ccc(C(=O)Nn2c(-c3ccccc3)nc3ccccc3c2=O)cc1 | > 100 µM |
| CCN(CC)Cc1cc(Nc2ccnc3ccc4c(nnn4C)c23)ccc1O | 32.6 µM |
| NS(=O)(=O)c1nnc(NC(=O)c2ccccc2)s1 | > 100 µM |
| CC(=O)OCC1OC(N2C(c3ccccc3)=CC(c3ccccc3)C(C#N)=C2S)C(OC(C)=O)C(OC(C)=O)C1OC(C)=O (stereo not drawn) | > 31.6 µM |

The molecules below were run on MDA-MB-231 breast (assay: DTP human tumour cell line panel, 48 h).

| SMILES | TGI |
| --- | --- |
| O=C1NNC(=O)C2C3c4ccccc4C(c4ccccc43)C12 (stereo not drawn) | > 100 µM |
| CNC(=O)N1CCN(C(=O)NC)CCN(C(=O)NC)CC1 | > 100 µM |
| CC1CN=C(Nc2ccc(S(N)(=O)=O)cc2)S1 (stereo not drawn) | > 100 µM |
| Oc1cc(O)c2c(c1)O[C@H](c1cc(O)c(O)c(O)c1)[C@H](O)C2 | 33.6 µM |
| COC1(OC)C2(Cl)CCC1(Cl)C(OC(C)=O)C2 (stereo not drawn) | > 100 µM |
| Clc1ccc2c(NCCCCN=Cc3ccccc3)ccnc2c1 | 29 µM |
| CSc1nc(Cl)c2c(n1)Sc1nc3cc4c(cc3n1C2O)OCO4 (stereo not drawn) | > 83.3 µM |
| Nc1ccc(C(=O)Nn2c(-c3ccccc3)nc3ccccc3c2=O)cc1 | > 100 µM |
| O=C(CC(=O)N(C(=O)c1ccccc1)c1ccc(Cl)cc1)N/N=C\c1cc(N=Nc2ccccc2Cl)ccc1O | > 100 µM |
| CCN(CC)Cc1cc(Nc2ccnc3ccc4c(nnn4C)c23)ccc1O | 44.6 µM |
| NS(=O)(=O)c1nnc(NC(=O)c2ccccc2)s1 | > 100 µM |
| CC(=O)OCC1OC(N2C(c3ccccc3)=CC(c3ccccc3)C(C#N)=C2S)C(OC(C)=O)C(OC(C)=O)C1OC(C)=O (stereo not drawn) | > 40.8 µM |
